We go through one compound from US4394390A, “Nasal dosage forms of propranol” (University of Kentucky Research Foundation, priority 1980, dated 1983).

A value given as a limit tells only on which side of the number the result lay.

For series [1] the following is noted: cited from earlier work.
Series [2] in a line: in vivo. Particulars: rat.
Series [3] in a line: Crossover study of propranolol plasma levels after nasal, intravenous and oral administration in dogs.
A short description of series [4]: in vivo. Particulars: dog.
Series [5] can be described thus: Bioavailability of propranolol from nasal solution vs oral and intravenous administration in rats (blood levels, AUC). The note with it: rat, FIG. 1.
For series [6] the following is noted: rat, in vivo.

In general, Tmax refers to the time at which the peak concentration occurs. One may read the bioavailability as the share of a dose that reaches the circulation, judged against a reference dose that is usually intravenous. For `CC(C)NCC(O)COc1cccc2ccccc12` (centres unmarked) [propranolol, 1-(isopropylamino)-3-(1-naphthyloxy)-2-propanol], the “variation of plasma levels among subjects” value in series [1] (human, intravenous, 10 mg, same five subjects) is “varied only two fold”. Also, the “variation of peak plasma levels among subjects” value in series [1] (human, oral, 80 mg, five subjects) was “varied seven fold”. Moreover, the “bioavailability (ratio of AUC of 80 mg oral dose and 10 mg I.V. dose)” value in series [1] (human, oral, lowest in some subjects) is reported as 16%. In addition, the “absorption from oral dosage forms” value in series [1] (oral dosage forms) is “inefficiently and variably absorbed from oral dosage forms”. Moreover, the Tmax in the series “in vivo [2]” is no more than 5 min. Besides, the bioavailability at 4 h in the series “in vivo [2]” (Ratio (AUC nasal vs I.V.)) was 99.6%; in “in vivo [2]” (po, Ratio (AUC oral vs I.V.)), 17.9%; in “in vivo [2]” (po, oral bioavailability, AUC ratio (oral/I.V.)×100), roughly 15%. Besides, in series [3] (dog, 20 mg, nasal vs I.V., FIG. 2), the “plasma levels after intravenous and nasal administration compared” value was “virtually identical”. In addition, the “plasma levels after oral administration” value in series [3] (dog, 20 mg, oral compared with I.V. and nasal, FIG. 2) is listed as “considerably lower plasma levels”. Moreover, the “absorption from the nasal mucosa into systemic blood” value in series [3] (nasal, conclusion from dog study and rat study) was “rapidly absorbed from the nasal mucosa into systemic blood without the first pass metabolism”. The bioavailability at 8 h in the series “in vivo [4]” (AUC(Nasal)/AUC(I.V.)) is 96.7%; in the series “in vivo [4]” (po, AUC(P.O.)/AUC(I.V.)), 8.9%. For the same compound, the bioavailability in the series “in vivo [4]” (bioavailability from the nasal route relative to the intravenous route) was determined as 99.1%; in the series “in vivo [4]” (po, bioavailability from the oral route relative to the intravenous route), 7.4%. The “blood level after nasal administration compared with intravenous administration” value in series [5] (nasal 1 mg vs I.V. 1 mg) is given as “identical to the blood level after intravenous administration”. Besides, in series [5] (nasal), the “absorption from the nasal mucosa” value is given as “very rapidly absorbed from the nasal mucosa”. Besides, the “blood level after oral administration” value in series [5] (oral, same dosage level (1 mg), compared with nasal and I.V.) was “considerably lower blood levels”. Also, the “dependence of area under the blood level curve on dose” value in series [6] is “directly proportional to the dose”. The “oral bioavailability, AUC ratio (oral/nasal)×100” value in series [6] (240 min) is reported as “about 15%”.
